Columns and labels:
Experiment in all cases: relative viability (nuclei count vs DMSO), 5 days (fraction); higher = more cells survive
[1] = test system: NCI-H2009
How it was run: (§1)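 Lung cancer cell lines were seeded in 1536-well plates and dosed by pin tool the next day, with either a single drug or a fixed anchor-drug dose combined with five library-drug doses (not always all listed) spaced in √10 steps. Five days later, one step fixed the cells and stained their nuclei (final 0.05% Triton X-100, 1% formaldehyde, 1 ug/ml Hoechst), and nuclei were counted on 4× images. Relative viability is the nuclei count in treated wells divided by the count in vehicle wells, and each value is the median of duplicate plates.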

[2] = test system: COR-L23
How it was run: as §1

[3] = test system: HCC-827
How it was run: as §1

[4] = test system: LC-2-ad
How it was run: as §1

[5] = test system: UMC-11
How it was run: as §1

[6] = test system: NCI-H1437
How it was run: as §1

[7] = test system: PC-3 [JPC-3]
How it was run: as §1

[8] = test system: PC-14
How it was run: as §1

[9] = test system: NCI-H23
How it was run: as §1

[10] = test system: NCI-H2085
How it was run: as §1

[11] = test system: H3255
How it was run: as §1

[12] = test system: NCI-H2087
How it was run: as §1

[13] = test system: HCC-15
How it was run: as §1

[14] = test system: HCC-366
How it was run: as §1

[15] = test system: SK-MES-1
How it was run: as §1

[16] = test system: NCI-H1975
How it was run: as §1

[17] = test system: NCI-H2228
How it was run: as §1

[18] = test system: NCI-H1666
How it was run: as §1

[19] = test system: LXF-289
How it was run: as §1

Cc1cn(-c2cc(NC(=O)c3ccc(C)c(Nc4nccc(-c5cccnc5)n4)c3)cc(C(F)(F)F)c2)cn1 [Nilotinib] + CC1(C)CCC(c2ccc(Cl)cc2)=C(CN2CCN(c3ccc(C(=O)NS(=O)(=O)c4ccc(N[C@H](CCN5CCOCC5)CSc5ccccc5)c(S(=O)(=O)C(F)(F)F)c4)cc3)CC2)C1 [Navitoclax] (partner 0.5 µM)
relative viability ([1]; first compound 0.001 µM): 1.09
relative viability ([1]; first compound 0.003162 µM): 1.19
relative viability ([1]; first compound 0.01 µM): 1.21
relative viability ([1]; first compound 0.03162 µM): 1.19
relative viability ([1]; first compound 0.1 µM): 1.23
relative viability ([2]; first compound 0.001 µM): 0.835
relative viability ([2]; first compound 0.003162 µM): 1.17
relative viability ([2]; first compound 0.01 µM): 1.18
relative viability ([2]; first compound 0.03162 µM): 0.953
relative viability ([2]; first compound 0.1 µM): 0.864
relative viability ([3]; first compound 0.001 µM): 1.02
relative viability ([3]; first compound 0.003162 µM): 1.08
relative viability ([3]; first compound 0.01 µM): 1.1
relative viability ([3]; first compound 0.1 µM): 1
relative viability ([4]; first compound 0.001 µM): 0.376
relative viability ([4]; first compound 0.003162 µM): 0.396
relative viability ([4]; first compound 0.01 µM): 0.467
relative viability ([4]; first compound 0.03162 µM): 0.339
relative viability ([4]; first compound 0.1 µM): 0.365
relative viability ([5]; first compound 0.001 µM): 0.303
relative viability ([5]; first compound 0.003162 µM): 0.303
relative viability ([5]; first compound 0.01 µM): 0.317
relative viability ([5]; first compound 0.1 µM): 0.301
relative viability ([6]; first compound 0.001 µM): 1.02
relative viability ([6]; first compound 0.003162 µM): 1.34
relative viability ([6]; first compound 0.01 µM): 1.15
relative viability ([6]; first compound 0.03162 µM): 0.766
relative viability ([6]; first compound 0.1 µM): 0.925
relative viability ([7]; first compound 0.001 µM): 0.699
relative viability ([7]; first compound 0.003162 µM): 1
relative viability ([7]; first compound 0.01 µM): 0.888
relative viability ([7]; first compound 0.03162 µM): 0.666
relative viability ([7]; first compound 0.1 µM): 0.741
relative viability ([8]; first compound 0.003162 µM): 1.09
relative viability ([8]; first compound 0.01 µM): 1.19
relative viability ([8]; first compound 0.03162 µM): 0.882
relative viability ([8]; first compound 0.1 µM): 1.07
relative viability ([9]; first compound 0.001 µM): 0.78
relative viability ([9]; first compound 0.003162 µM): 0.839
relative viability ([9]; first compound 0.01 µM): 1.09
relative viability ([9]; first compound 0.03162 µM): 0.605
relative viability ([9]; first compound 0.1 µM): 0.721
relative viability ([10]; first compound 0.001 µM): 1.12
relative viability ([10]; first compound 0.003162 µM): 1.19
relative viability ([10]; first compound 0.01 µM): 1.38
relative viability ([10]; first compound 0.03162 µM): 0.957
relative viability ([10]; first compound 0.1 µM): 1.03
relative viability ([11]; first compound 0.001 µM): 0.508
relative viability ([11]; first compound 0.003162 µM): 0.479
relative viability ([11]; first compound 0.01 µM): 0.541
relative viability ([11]; first compound 0.03162 µM): 0.246
relative viability ([11]; first compound 0.1 µM): 0.382
relative viability ([12]; first compound 0.001 µM): 0.795
relative viability ([12]; first compound 0.003162 µM): 0.86
relative viability ([12]; first compound 0.01 µM): 0.997
relative viability ([12]; first compound 0.03162 µM): 0.93
relative viability ([12]; first compound 0.1 µM): 0.734
relative viability ([13]; first compound 0.001 µM): 0.631
relative viability ([13]; first compound 0.003162 µM): 0.824
relative viability ([13]; first compound 0.01 µM): 0.716
relative viability ([13]; first compound 0.03162 µM): 0.511
relative viability ([13]; first compound 0.1 µM): 0.57
relative viability ([14]; first compound 0.001 µM): 1.07
relative viability ([14]; first compound 0.01 µM): 1.62
relative viability ([14]; first compound 0.03162 µM): 0.696
relative viability ([14]; first compound 0.1 µM): 0.744
relative viability ([15]; first compound 0.001 µM): 1.17
relative viability ([15]; first compound 0.003162 µM): 1.5
relative viability ([15]; first compound 0.01 µM): 1.61
relative viability ([15]; first compound 0.03162 µM): 1.1
relative viability ([15]; first compound 0.1 µM): 1.29
relative viability ([16]; first compound 0.001 µM): 0.904
relative viability ([16]; first compound 0.003162 µM): 1.22
relative viability ([16]; first compound 0.01 µM): 1.34
relative viability ([16]; first compound 0.03162 µM): 0.694
relative viability ([16]; first compound 0.1 µM): 0.976
relative viability ([17]; first compound 0.001 µM): 0.662
relative viability ([17]; first compound 0.003162 µM): 1.1
relative viability ([17]; first compound 0.01 µM): 0.927
relative viability ([17]; first compound 0.03162 µM): 0.826
relative viability ([17]; first compound 0.1 µM): 0.763
relative viability ([18]; first compound 0.001 µM): 0.994
relative viability ([18]; first compound 0.003162 µM): 1.24
relative viability ([18]; first compound 0.01 µM): 0.98
relative viability ([18]; first compound 0.03162 µM): 0.895
relative viability ([18]; first compound 0.1 µM): 0.759
relative viability ([19]; first compound 0.001 µM): 0.904
relative viability ([19]; first compound 0.003162 µM): 1.09
relative viability ([19]; first compound 0.01 µM): 1.05
relative viability ([19]; first compound 0.03162 µM): 0.855
relative viability ([19]; first compound 0.1 µM): 0.878

From the supplement of paper PMC10307832
